The values below come from ChEMBL document CHEMBL1147270, “Discorhabdins S, T, and U, new cytotoxic pyrroloiminoquinones from a deep-water Caribbean sponge of the genus Batzella” (J Nat Prod, 2003).

Format in all cases: functional, cell-based
One experiment deals with PANC-1. Briefly: Cytotoxicity against human PANC1 cells after 96 hrs by MTT assay. As to conditions: PANC-1, 96 h. (In general: Formazan colour is commonly taken as a measure of viable cells.)
In a further experiment the test system is P388. Briefly: Cytotoxicity against mouse P388 cells after 48 hrs by MTT assay. Particulars: P388, 48 h.
A further experiment has as its system A549. The experiment in a line: Cytotoxicity against human A549 cells after 96 hrs by MTT assay. Particulars: A549, 96 h.

A word on the IC50: it is the point on the concentration scale where inhibition reaches its midpoint.

As to `CSC1=CC(=O)C(Br)=C[C@]12CCNC1=C2c2nccc3cn(C)c(c23)C1=O` [DISCORHABDIN S], the half-inhibitory concentration (IC50) in the experiment with PANC-1 was 2600 nM; with P388, 3080 nM; in the experiment on A549, greater than 5000 nM.
Consider `CSC1=CC(=O)C(Br)=C[C@]12C=CNC1=C2c2nccc3cn(C)c(c23)C1=O` [DISCORHABDIN T], for which the results for the IC50 in the experiment with PANC-1, in the experiment with P388 and in the experiment with A549 were 700 nM, greater than 5000 nM and greater than 5000 nM, respectively.
As for `CSC1=CC(=O)C(Br)=C[C@]12C=CNC1=C2C2=NCCc3cn(C)c(c32)C1=O` [DISCORHABDIN U], the IC50 in the experiment with PANC-1 turned out to be 69 nM; with P388 it was 170 nM; in the experiment on A549, 170 nM.
